Test results taken from patent US7799775B2, “Pyrimidine derivatives” (ASKA Pharmaceutical Co., Ltd., priority 2004, dated 2010).

What follows are compounds tested against T1, human 5-HT3 receptor (Homo sapiens, UniProt P46098) (assay: Measurement of affinity to human 5-HT3 receptor (in vitro), [3H]BRL-43694 binding). Conditions: test compound 100 nmols/L; [3H]BRL-43694 0.5 nmols/L; HEK-293 cell membrane expressing human 5-HT3 receptor; read-out: Percent Inhibition (%) on Each Receptor's Binding at 10^−7M, 5-HT3.
T1 construct: purchased BIOLINKS K.K; host or cells: HEK-293 cells (membrane preparation)
T1 sequence (P46098 24-478): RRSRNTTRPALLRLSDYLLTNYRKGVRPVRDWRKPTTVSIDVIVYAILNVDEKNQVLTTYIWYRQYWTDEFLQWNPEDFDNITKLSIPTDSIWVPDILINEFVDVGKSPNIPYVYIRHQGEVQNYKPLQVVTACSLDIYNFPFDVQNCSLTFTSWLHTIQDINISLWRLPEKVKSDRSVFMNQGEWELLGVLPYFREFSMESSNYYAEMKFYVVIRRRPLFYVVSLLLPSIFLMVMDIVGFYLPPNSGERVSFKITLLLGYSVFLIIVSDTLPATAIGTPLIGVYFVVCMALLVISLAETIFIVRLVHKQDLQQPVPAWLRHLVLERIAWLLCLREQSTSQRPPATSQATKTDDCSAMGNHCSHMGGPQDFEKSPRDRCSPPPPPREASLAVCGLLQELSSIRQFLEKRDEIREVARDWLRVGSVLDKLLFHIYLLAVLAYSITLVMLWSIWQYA
Procedure, shortened: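 Membranes from HEK-293 cells expressing the receptor were incubated with 0.5 nmol/L radioligand and compound for 60 min at 25 °C in Tris/MgCl2/EDTA buffer, pH 7.5. Bound radioactivity was collected by filtration and counted. Percent inhibition was corrected for non-specific binding defined with 10 μmol/L tropisetron; compounds were tested at 100 nmol/L.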

SMILES | inhibition at 0.1 µM [%]
Cc1ccc2ccnc(N3CCN(C)CC3)c2c1 [Production Example 47, 7-methyl-1-(4-methylpiperazin-1-yl)isoquinoline] | 93.6
Clc1ccc2ccnc(N3CCNCC3)c2c1 [Production Example 49, 7-chloro-1-piperazin-1-ylisoquinoline] | 96.3
CN1CCN(c2nccc3ccsc23)CC1 [Production Example 6, 7-(4-methylpiperazin-1-yl)thieno[2,3-c]pyridine] | 97.5
Cc1cc2c(N3CCN4CCC[C@H]4C3)nccc2s1 [Production Example 107, 4-((8aS)-octahydropyrrolo[1,2-a]pyrazin-2-yl)-2-methylthieno[3,2-c]-pyridine] | 95.9
COc1ccc2ccnc(N3CCN4CCC[C@H]4C3)c2c1 [Production Example 72, 1-((8aS)-octahydropyrrolo[1,2-a]pyrazin-2-yl)-7-methoxyisoquinoline] | 99.8
Nn1c(CCCCN2CCN(c3ccc4ccccc4n3)CC2)nc2ccccc2c1=O [Example 4-3, 3-amino-2-[4-(4-quinolin-2-ylpiperazin-1-yl)butyl]-3H-quinazolin-4-one] | 83.6
COc1ccc2ccnc(N3CCNC(C)C3)c2c1 (stereo not shown) [Production Example 38, 7-methoxy-1-(3-methylpiperazin-1-yl)isoquinoline] | 93.1
Nn1c(CCCCN2CCN(c3ccc4ccccc4n3)CC2)nc2cccc(Cl)c2c1=O [Example 4-25, 3-amino-5-chloro-2-[4-(4-quinolin-2-ylpiperazin-1-yl)butyl]-3H-quinazolin-4-one] | 43.3
Cn1c(CCCCN2CCN(c3ccc4ccccc4n3)CC2)nc2c(c1=O)CCCC2 [Example 7-1, 3-methyl-2-[4-(4-quinolin-2-ylpiperazin-1-yl)butyl]-5,6,7,8-tetrahydro-3H-quinazolin-4-one] | 94.2
Cc1cc(N2CCN(CCCCc3nc4ccccc4c(=O)n3N)CC2)nc2ccccc12 [Example 4-4, 3-amino-2-[4-[4-(4-methylquinolin-2-yl)piperazin-1-yl]butyl]-3H-quinazolin-4-one] | 78.6
c1cc2ccsc2c(N2CCN3CCC[C@@H]3C2)n1 [Production Example 108, 7-((8aR)-octahydropyrrolo[1,2-a]pyrazin-2-yl)thieno[2,3-c]pyridine] | 100
Cn1c(CCCCN2CCN(c3ccc4ccccc4n3)CC2)nc2ccccc2c1=O [Example 7-20, 3-methyl-2-[4-(4-quinolin-2-ylpiperazin-1-yl)butyl]-3H-quinazolin-4-one] | 92.9
c1cc2ccoc2c(N2CCN3CCC[C@H]3C2)n1 [Production Example 102, 7-((8aS)-octahydropyrrolo[1,2-a]pyrazin-2-yl)furo[2,3-c]-pyridine] | 98.9
c1cc2sccc2c(N2CCN3CCC[C@H]3C2)n1 [Production Example 104, 4-((8aS)-octahydropyrrolo[1,2-a]pyrazin-2-yl)thieno[3,2-c]pyridine] | 99.3
CN1CCN(c2nccc3sccc23)CC1 [Production Example 8, 4-(4-methylpiperazin-1-yl)thieno[3,2-c]pyridine] | 93.3
Nn1c(CCCCN2CCN(c3ccc4ccccc4n3)CC2)nc2c(c1=O)CCCC2 [Example 4-1, 3-amino-2-[4-(4-quinolin-2-ylpiperazin-1-yl)butyl]-5,6,7,8-tetrahydro-3H-quinazolin-4-one] | 81.2
CCn1c(CCCCN2CCN(c3ccc4ccccc4n3)CC2)nc2c(c1=O)CCCC2 [Example 7-2, 3-2-[4-(4-quinolin-2-ylpiperazin-1-yl)butyl]-5,6,7,8-tetrahydro-3H-quinazolin-4-one] | 94.5
Clc1ccc2ccnc(N3CCN4CCC[C@H]4C3)c2c1 [Production Example 73, 7-chloro-1-((8aS)-octahydropyrrolo[1,2-a]pyrazin-2-yl)isoquinoline] | 99.3
Nn1c(CCCCN2CCN(c3ccc4ccccc4n3)CC2)nc2ccsc2c1=O [Example 4-18, 3-amino-2-[4-(4-quinolin-2-ylpiperazin-1-yl)butyl]-3H-thieno[3,2-d]-pyrimidin-4-one] | 50.9
c1cc2ccsc2c(N2CCN3CCC[C@H]3C2)n1 [Production Example 103, 7-((8aS)-octahydropyrrolo[1,2-a]pyrazin-2-yl)thieno[2,3-c]pyridine] | 99.5
Cc1cc(N2CCN(CCCCc3nc4c(c(=O)n3C)CCCC4)CC2)nc2ccccc12 [Example 7-6, 3-methyl-2-[4-[4-(4-methylquinolin-2-yl)piperazin-1-yl]butyl]-5,6,7,8-tetrahydro-3H-quinazolin-4-one] | 93.8
CCn1c(CCCCN2CCN(c3cc(C)c4ccccc4n3)CC2)nc2c(c1=O)CCCC2 [Example 7-7, 3-ethyl-2-[4-[4-(4-methylquinolin-2-yl)piperazin-1-yl]butyl]-5,6,7,8-tetrahydro-3H-quinazolin-4-one] | 95
